Measured values reported in patent US20230320956A1, “DIARYLALKANE COMPOUNDS AND COMPOSITIONS FOR USE WITH SKIN AGING AND METHODS OF PRODUCTION THEREOF” (Unigen, Inc., priority 2022, published 2023).

Test system: keratinocytes (Hacat cell line)
Test: Global gene expression (RNA-seq) in treated keratinocytes
Type: cell-based, human
Conditions: for Fold change (gene expression): 40 μM vs untreated; for Fold Enrichment / Number of Genes Differentially Expressed: 40 μM
Protocol: To determine specific expression changes dimethoxytolyl propylresorcinol exerted on human keratinocyte aging genes, keratinocytes (Hacat cell line) were treated dimethoxytolyl propylresorcinol at 40 μM and gene expression was analyzed by RNA-seq. Differential gene expression was compared to untreated keratinocytes and cells treated with 40 μM Retinol A to find genes involved in aging. […] Retinol was chosen as a positive control because retinoids have been described as having effective anti-aging and anti-wrinkle effects (Zasada M, 2019). We directly compared the effects of Retinol on keratinocytes with the same concentration of dimethoxytolyl propylresorcinol.

[1] = Gene Cluster Activation of MAPK activity
[2] = Gene Cluster Calcium ion binding
[3] = Gene Cluster Cell-cell signaling
[4] = Gene Cluster Cellular response to lipopolysaccharide
[5] = Gene Cluster Cellular response to retinoic acid
[6] = Gene Cluster Epidermis development
[7] = Gene Cluster Epithelial cell differentiation
[8] = Gene Cluster Extracellular exosome
[9] = Gene Cluster Extracellular matrix organization
[10] = Gene Cluster Extracellular region
[11] = Gene Cluster Extracellular space
[12] = Gene Cluster Growth factor activity
[13] = Gene Cluster Hyaluronan biosynthetic process
[14] = Gene Cluster Inflammatory response
[15] = Gene Cluster Intermediate filament cytoskeleton organization
[16] = Gene Cluster Keratinocyte differentiation
[17] = Gene Cluster Negative regulation of ERK1 and ERK2 cascade
[18] = Gene Cluster Negative regulation of cell proliferation
[19] = Gene Cluster Negative regulation of endopeptidase activity
[20] = Gene Cluster Neutrophil chemotaxis
[21] = Gene Cluster O-glycan processing
[22] = Gene Cluster Osteoblast differentiation
[23] = Gene Cluster Positive regulation of angiogenesis
[24] = Gene Cluster Positive regulation of cell migration
[25] = Gene Cluster Positive regulation of cell proliferation
[26] = Gene Cluster Positive regulation of gene expression
[27] = Gene Cluster Positive regulation of smooth muscle cell proliferation
[28] = Gene Cluster Proteinaceous extracellular matrix
[29] = Gene Cluster Transforming growth factor beta receptor binding

SMILES: COc1ccc(CCCc2ccc(O)cc2O)c(OC)c1C [dimethoxytolyl propylresorcinol, 1-(3-methyl-2,4-dimethoxyphenyl)-3-(2′,4′-dihydroxyphenyl)-propane]
- Fold change (gene expression) (AHR - Aryl hydrocarbon receptor, Oxidative stress): 1.73 fold
- Fold change (gene expression) (ANGPTL4 - Angiopoietin-like 4, Negative regulation of growth/Angiogenesis): 8.23 fold
- Fold change (gene expression) (ANOS1 - Anosmin 1, ECM/Nerve adhesion): 0.49 fold
- Fold change (gene expression) (BMP4 - Bone morphogenetic protein 4, Growth): 0.41 fold
- Fold change (gene expression) (C3orf33 - Chromosome 3 open reading frame 33, Negative regulation of growth): 3.03 fold
- Fold change (gene expression) (CD1D - CD1d molecule, ECM): 0.36 fold
- Fold change (gene expression) (CDK5R1 - Cyclin-dependent kinase 5 activator 1, Growth/Skin barrier): 1.54 fold
- Fold change (gene expression) (CEACAM1 - CEA cell adhesion molecule 1, Cell adhesion): 2.01 fold
- Fold change (gene expression) (COL1A1 - Collagen type 1, ECM): 1.89 fold
- Fold change (gene expression) (COL5A1 - Collagen type V alpha 1 chain, ECM): 0.24 fold
- Fold change (gene expression) (CRISPLD2 - Cysteine-rich secretory protein LCCL domain-containing 2, ECM): 2.56 fold
- Fold change (gene expression) (CXCL3 - C-X-C motif chemokine ligand 3, Immune signaling): 8.16 fold
- Fold change (gene expression) (CYP1A1 - Cytochrome P450 family 1 subfamily A member 1, Drug metabolism): 5.04 fold
- Fold change (gene expression) (ECM1 - Extracellular matrix protein 1, ECM): 2.49 fold
- Fold change (gene expression) (EPHA4 - Ephrin type-A receptor 4, Cell adhesion, cell communication): 0.42 fold
- Fold change (gene expression) (EREG - Epiregulin, Growth): 9.61 fold
- Fold change (gene expression) (FABP5 - Fatty acid binding protein 5, Skin barrier): 1.68 fold
- Fold change (gene expression) (FGF1 - Fibroblast growth factor 1, Growth): 0.43 fold
- Fold change (gene expression) (FGF11 - Fibroblast growth factor 11, Growth): 0.56 fold
- Fold change (gene expression) (FLRT2 - Fibronectin leucine-rich transmembrane protein 2, ECM): 0.30 fold
- Fold Enrichment [1]: 2.39 fold
- Number of Genes Differentially Expressed [1]: 14
- Fold Enrichment (Gene Cluster Angiogenesis): 2.79 fold
- Number of Genes Differentially Expressed (Gene Cluster Angiogenesis): 34
- Fold Enrichment [2]: 1.49 fold
- Number of Genes Differentially Expressed [2]: 58
- Fold Enrichment (Gene Cluster Cell development): 4.12 fold
- Number of Genes Differentially Expressed (Gene Cluster Cell development): 9
- Fold Enrichment (Gene Cluster Cell surface): 1.85 fold
- Number of Genes Differentially Expressed (Gene Cluster Cell surface): 53
- Fold Enrichment [3]: 2.59 fold
- Number of Genes Differentially Expressed [3]: 36
- Fold Enrichment [4]: 3.08 fold
- Number of Genes Differentially Expressed [4]: 19
- Fold Enrichment [5]: 3.14 fold
- Number of Genes Differentially Expressed [5]: 12
- Fold Enrichment [6]: 4.52 fold
- Number of Genes Differentially Expressed [6]: 21
- Fold Enrichment [7]: 2.87 fold
- Number of Genes Differentially Expressed [7]: 11
- Fold Enrichment [8]: 1.23 fold
- Number of Genes Differentially Expressed [8]: 183
- Fold Enrichment [9]: 2.05 fold
- Number of Genes Differentially Expressed [9]: 22
- Fold Enrichment [10]: 1.60 fold
- Number of Genes Differentially Expressed [10]: 136
- Fold Enrichment [11]: 1.97 fold
- Number of Genes Differentially Expressed [11]: 140
- Fold Enrichment [12]: 3.63 fold
- Number of Genes Differentially Expressed [12]: 32
- Fold Enrichment (Gene Cluster Growth): 5.23 fold
- Number of Genes Differentially Expressed (Gene Cluster Growth): 8
- Fold Enrichment (Gene Cluster Heparin binding): 2.53 fold
- Number of Genes Differentially Expressed (Gene Cluster Heparin binding): 22
- Fold Enrichment [13]: 10.45 fold
- Number of Genes Differentially Expressed [13]: 4
- Fold Enrichment [14]: 2.61 fold
- Number of Genes Differentially Expressed [14]: 54
- Fold Enrichment [15]: 7.32 fold
- Number of Genes Differentially Expressed [15]: 6
- Fold Enrichment [16]: 3.13 fold
- Number of Genes Differentially Expressed [16]: 13
- Fold Enrichment [17]: 3.47 fold
- Number of Genes Differentially Expressed [17]: 11
- Fold Enrichment [18]: 2.17 fold
- Number of Genes Differentially Expressed [18]: 47
- Fold Enrichment [19]: 2.42 fold
- Number of Genes Differentially Expressed [19]: 16
- Fold Enrichment [20]: 3.33 fold
- Number of Genes Differentially Expressed [20]: 12
- Fold Enrichment [21]: 3.05 fold
- Number of Genes Differentially Expressed [21]: 10
- Fold Enrichment [22]: 2.64 fold
- Number of Genes Differentially Expressed [22]: 15
- Fold Enrichment [23]: 3.02 fold
- Number of Genes Differentially Expressed [23]: 19
- Fold Enrichment [24]: 2.88 fold
- Number of Genes Differentially Expressed [24]: 29
- Fold Enrichment [25]: 1.96 fold
- Number of Genes Differentially Expressed [25]: 50
- Fold Enrichment [26]: 1.82 fold
- Number of Genes Differentially Expressed [26]: 26
- Fold Enrichment [27]: 4.88 fold
- Number of Genes Differentially Expressed [27]: 16
- Fold Enrichment [28]: 2.47 fold
- Number of Genes Differentially Expressed [28]: 35
- Fold Enrichment (Gene Cluster Response to drug): 2.04 fold
- Number of Genes Differentially Expressed (Gene Cluster Response to drug): 34
- Fold Enrichment [29]: 4.82 fold
- Number of Genes Differentially Expressed [29]: 11
- Fold Enrichment (Gene Cluster Wound healing): 3.20 fold
- Number of Genes Differentially Expressed (Gene Cluster Wound healing): 14
- Fold change (gene expression) (HAS2 - hyaluronan synthase 2, ECM): 5.48 fold
- Fold change (gene expression) (HAS3 - hyaluronan synthase 3, ECM): 3.59 fold
- Fold change (gene expression) (HBEGF - Heparin-binding EGF-like growth factor, Growth): 8.61 fold
- Fold change (gene expression) (HIF1A - Hypoxia-inducible factor 1 subunit alpha, Oxidative stress): 1.36 fold
- Fold change (gene expression) (HMOX1 - Heme oxygenase 1, Oxidative stress): 5.23 fold
- Fold change (gene expression) (HS3ST1 - Heparan sulfate-glucosamine 3-sulfotransferase 1, ECM): 2.28 fold
- Fold change (gene expression) (IL1A - Interleukin 1 alpha, Cytokine signaling): 6.60 fold
- Fold change (gene expression) (IL1RL1 - Interleukin 1 receptor-like 1, Immune signaling): 17.29 fold
- Fold change (gene expression) (ITGA6 - Integrin subunit alpha 6, Cell adhesion): 1.44 fold
- Fold change (gene expression) (ITGBL1 - Integrin subunit beta-like 1, Cell adhesion): 0.68 fold
- Fold change (gene expression) (KIF13A - Kinesin family member 13A, Cytoskeleton/secretion): 0.67 fold
- Fold change (gene expression) (LAMA3 - Laminin subunit alpha 3, ECM): 1.59 fold
- Fold change (gene expression) (LAMC2 - Laminin subunit gamma 2, ECM): 2.72 fold
- Fold change (gene expression) (NGF - Nerve growth factor, Growth): 113.25 fold
- Fold change (gene expression) (NID2 - Nidogen 2 precursor, ECM): 1.45 fold
- Fold change (gene expression) (OCLN - Occludin, Skin barrier): 1.42 fold
- Fold change (gene expression) (OLFM4 - Olfactomedin 4, ECM): 0.10 fold
- Fold change (gene expression) (PARP15 - Poly (ADP-Ribose) polymerase family member 15, DNA damage repair/transcription regulation): 98.2 fold
- Fold change (gene expression) (PI3 - Peptidase inhibitor 3, elastase inhibitor, Elastin genes): 10.5 fold
- Fold change (gene expression) (PSAPL1 - Prosaposin-like 1, ECM): 0.30 fold
- Fold change (gene expression) (PSG5 - Pregnancy specific beta-1-glycoprotein 5, ECM): 0.30 fold
- Fold change (gene expression) (PTPRR - Protein tyrosine phosphatase receptor type R, Negative regulation of growth): 3.96 fold
- Fold change (gene expression) (RAPGEF3 - Rap guanine nucleotide exchange factor 3, Plasma membrane fusion/cytoskeleton): 1.78 fold
- Fold change (gene expression) (SELE - E-Selectin, Cell adhesion): 99.30 fold
- Fold change (gene expression) (SEMA3D - Semaphorin 3D, ECM/Nerve growth): 0.54 fold
- Fold change (gene expression) (SERPINB2 - Serpin family B member 2, Skin barrier): 4.25 fold
- Fold change (gene expression) (SERPINB4 - Serpin family B member 4, Skin barrier): 6.37 fold
- Fold change (gene expression) (SIRT1 - Sirtuin 1, Transcription regulation): 1.30 fold
- Fold change (gene expression) (SIRT7 - Sirtuin 7, Transcription regulation): 1.41 fold
- Fold change (gene expression) (SOD2 - Superoxide dismutase 2, Oxidative stress): 1.54 fold
- Fold change (gene expression) (TFP12 - Tissue factor pathway inhibitor 2, ECM): 2.37 fold
- Fold change (gene expression) (TGFB1 - Transforming growth factor beta 1, TGF-β signaling): 1.30 fold
- Fold change (gene expression) (TLR4 - Toll-like receptor 4, Immune signaling): 3.41 fold
- Fold change (gene expression) (TNC - Tenascin C, ECM/Nerve growth): 0.50 fold
- Fold change (gene expression) (TP73 - Tumor protein P73, Growth): 0.35 fold
- Fold change (gene expression) (TXNRD1 - Thioredoxin reductase 1, Oxidative stress): 1.52 fold
- Fold change (gene expression) (UGCG - UDP-glucose ceramide glucosyltransferase, Lipid metabolism and transport): 1.56 fold
- Fold change (gene expression) (VIT - Vitrin, ECM): 0.08 fold
